According to article PMC9418665, “Fatty acid amide hydrolase inhibition and N‐arachidonoylethanolamine modulation by isoflavonoids: A novel target for upcoming antidepressants” (Pharmacology Research & Perspectives, 2022):
Where two headings read alike, the source gives them in different places.

Biological target: T1, fatty acid amide hydrolase (FAAH) (Homo sapiens, UniProt O00519)
T1 sequence (O00519 1-579): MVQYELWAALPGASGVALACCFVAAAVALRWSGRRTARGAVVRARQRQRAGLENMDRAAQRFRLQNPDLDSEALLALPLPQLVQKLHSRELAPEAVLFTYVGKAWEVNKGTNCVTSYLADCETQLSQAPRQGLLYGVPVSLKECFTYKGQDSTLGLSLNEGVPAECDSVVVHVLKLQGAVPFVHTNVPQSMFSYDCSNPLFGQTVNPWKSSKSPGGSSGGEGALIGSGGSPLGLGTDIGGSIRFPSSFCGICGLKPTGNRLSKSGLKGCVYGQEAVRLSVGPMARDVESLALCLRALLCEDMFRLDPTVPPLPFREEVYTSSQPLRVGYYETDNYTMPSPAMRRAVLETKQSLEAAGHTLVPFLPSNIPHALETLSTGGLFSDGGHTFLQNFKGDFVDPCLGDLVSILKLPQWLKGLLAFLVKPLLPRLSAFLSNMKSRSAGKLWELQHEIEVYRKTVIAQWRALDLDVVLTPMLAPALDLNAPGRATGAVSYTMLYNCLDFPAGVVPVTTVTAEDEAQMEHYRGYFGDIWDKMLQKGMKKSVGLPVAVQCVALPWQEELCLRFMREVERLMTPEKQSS
Test: biochemical

IC50 (read-out: IC50) [nM]	Compound	IC50 [nM]
	O=c1cc(-c2ccccc2)oc2cc(O)ccc12 [7-hydroxyflavone]	2040 ± 190
	CCCCC/C=C\C/C=C\C/C=C\C/C=C\CCCC(=O)NCCc1c[nH]c2ccc(O)cc12 [arch-5HT]	1040 ± 130
1300 ± 130	O=c1c(-c2ccc(O)cc2)coc2cc(O)cc(O)c12 [genistein]	
2100 ± 240	COc1ccc(-c2coc3cc(O)cc(O)c3c2=O)cc1 [biochanin-A]	
